What was measured:
Assay type in all cases: in vivo
Details in all cases: evaluated after 13 days
[1] = system: Amaranthus retoflexus (AMARE); test: Post-emergence glasshouse herbicide test
Experimental: (§1) Seeds of a variety of test species are sown in standard soil in pots (Lolium perenne (LOLPE), Amaranthus retoflexus (AMARE), Abutilon theophrasti (ABUTH), Setaria faberi (SETFA), Echinochloa crus-galli (ECHCG), Ipomoea hederacea (IPOHE)). After cultivation for one day (pre-emergence) or after 8 days cultivation (post-emergence) under controlled conditions in a glasshouse (at 24/16° C., day/night; 14 hours light; 65% humidity), the plants are sprayed with an aqueous spray solution derived from the formulation of the technical active ingredient in acetone/water (50:50) solution containing 0.5% Tween™ 20 (polyoxyethelyene sorbitan monolaurate, CAS RN 9005-64-5). Compounds are applied at 125 g/h unless otherwise indicated. The test plants are then grown in a glasshouse under controlled conditions in a glasshouse (at 24/16° C., day/night; 14 hours light; 65% humidity) and watered twice daily. After 13 days for pre- and post-emergence, the test is evaluated for the percentage damage caused to the plant. The biological activities are shown in the following table on a five-point scale (5=80-100%; 4=60-79%; 3=40-59%; 2=20-39%; 1=0-19%).

[2] = system: Ipomoea hederacea (IPOHE); test: Post-emergence glasshouse herbicide test
Experimental: as §1

[3] = system: Abutilon theophrasti (ABUTH); test: Post-emergence glasshouse herbicide test
Experimental: as §1

Setaria faberi (SETFA) [4] = test: Post-emergence glasshouse herbicide test
Experimental: as §1

[5] = system: Echinochloa crus-galli (ECHCG); test: Post-emergence glasshouse herbicide test
Experimental: as §1

[6] = system: Amaranthus retoflexus (AMARE); test: Pre-emergence glasshouse herbicide test
Experimental: as §1

[7] = system: Ipomoea hederacea (IPOHE); test: Pre-emergence glasshouse herbicide test
Experimental: as §1

[8] = system: Abutilon theophrasti (ABUTH); test: Pre-emergence glasshouse herbicide test
Experimental: as §1

Setaria faberi (SETFA) [9] = test: Pre-emergence glasshouse herbicide test
Experimental: as §1

[10] = system: Echinochloa crus-galli (ECHCG); test: Pre-emergence glasshouse herbicide test
Experimental: as §1

CCSc1c(OC(F)F)ccc(C(=O)Nc2nnnn2C)c1Cl [Compound 1.027]
3 (3=40-59%): percentage damage caused to the plant, IPOHE ([7]; 125 g/h)
5 (5=80-100%): percentage damage caused to the plant, AMARE ([1]; 125 g/h) | percentage damage caused to the plant, ABUTH ([3]; 125 g/h) | percentage damage caused to the plant, SETFA (Setaria faberi (SETFA) [4]; 125 g/h) | percentage damage caused to the plant, ECHCG ([5]; 125 g/h) | percentage damage caused to the plant, AMARE ([6]; 125 g/h) | percentage damage caused to the plant, ABUTH ([8]; 125 g/h) | percentage damage caused to the plant, SETFA (Setaria faberi (SETFA) [9]; 125 g/h) | percentage damage caused to the plant, ECHCG ([10]; 125 g/h)
4 (4=60-79%): percentage damage caused to the plant, IPOHE ([2]; 125 g/h)

CCS(=O)(=O)c1c(OCC(F)(F)F)ccc(C(=O)Nc2nnnn2C)c1Cl [Compound 1.035]
5 (5=80-100%): percentage damage caused to the plant, AMARE ([1]; 125 g/h) | percentage damage caused to the plant, IPOHE ([2]; 125 g/h) | percentage damage caused to the plant, ABUTH ([3]; 125 g/h) | percentage damage caused to the plant, SETFA (Setaria faberi (SETFA) [4]; 125 g/h) | percentage damage caused to the plant, ECHCG ([5]; 125 g/h) | percentage damage caused to the plant, AMARE ([6]; 125 g/h) | percentage damage caused to the plant, IPOHE ([7]; 125 g/h) | percentage damage caused to the plant, ABUTH ([8]; 125 g/h) | percentage damage caused to the plant, SETFA (Setaria faberi (SETFA) [9]; 125 g/h) | percentage damage caused to the plant, ECHCG ([10]; 125 g/h)

CCS(=O)(=O)c1c(OC(F)F)ccc(C(=O)Nc2nnc(C)o2)c1C [Compound 2.014]
5 (5=80-100%): percentage damage caused to the plant, AMARE ([1]; 125 g/h) | percentage damage caused to the plant, ABUTH ([3]; 125 g/h) | percentage damage caused to the plant, SETFA (Setaria faberi (SETFA) [4]; 125 g/h) | percentage damage caused to the plant, ECHCG ([5]; 125 g/h) | percentage damage caused to the plant, AMARE ([6]; 125 g/h) | percentage damage caused to the plant, IPOHE ([7]; 125 g/h) | percentage damage caused to the plant, ABUTH ([8]; 125 g/h) | percentage damage caused to the plant, SETFA (Setaria faberi (SETFA) [9]; 125 g/h) | percentage damage caused to the plant, ECHCG ([10]; 125 g/h)
4 (4=60-79%): percentage damage caused to the plant, IPOHE ([2]; 125 g/h)

Cc1nnc(NC(=O)c2ccc(OC(F)(F)F)c(S(C)(=O)=O)c2Cl)o1 [Compound 2.005]
5 (5=80-100%): percentage damage caused to the plant, AMARE ([1]; *Applied at 250 g/ha) | percentage damage caused to the plant, IPOHE ([2]; *Applied at 250 g/ha) | percentage damage caused to the plant, ABUTH ([3]; *Applied at 250 g/ha) | percentage damage caused to the plant, SETFA (Setaria faberi (SETFA) [4]; *Applied at 250 g/ha) | percentage damage caused to the plant, ECHCG ([5]; *Applied at 250 g/ha) | percentage damage caused to the plant, AMARE ([6]; *Applied at 250 g/ha) | percentage damage caused to the plant, ABUTH ([8]; *Applied at 250 g/ha) | percentage damage caused to the plant, SETFA (Setaria faberi (SETFA) [9]; *Applied at 250 g/ha) | percentage damage caused to the plant, ECHCG ([10]; *Applied at 250 g/ha)
1 (1=0-19%): percentage damage caused to the plant, IPOHE ([7]; *Applied at 250 g/ha)

CCSc1c(OC(F)(F)F)ccc(C(=O)Nc2nnc(C)o2)c1Cl [Compound 2.010]
1 (1=0-19%): percentage damage caused to the plant, IPOHE ([7]; 125 g/h)
4 (4=60-79%): percentage damage caused to the plant, IPOHE ([2]; 125 g/h) | percentage damage caused to the plant, ABUTH ([8]; 125 g/h)
5 (5=80-100%): percentage damage caused to the plant, AMARE ([1]; 125 g/h) | percentage damage caused to the plant, ABUTH ([3]; 125 g/h) | percentage damage caused to the plant, SETFA (Setaria faberi (SETFA) [4]; 125 g/h) | percentage damage caused to the plant, ECHCG ([5]; 125 g/h) | percentage damage caused to the plant, AMARE ([6]; 125 g/h) | percentage damage caused to the plant, SETFA (Setaria faberi (SETFA) [9]; 125 g/h) | percentage damage caused to the plant, ECHCG ([10]; 125 g/h)

CCCS(=O)(=O)c1c(OC(F)F)ccc(C(=O)Nc2nnnn2C)c1Cl [Compound 1.050]
4 (4=60-79%): percentage damage caused to the plant, IPOHE ([2]; 125 g/h)
3 (3=40-59%): percentage damage caused to the plant, IPOHE ([7]; 125 g/h)
5 (5=80-100%): percentage damage caused to the plant, AMARE ([1]; 125 g/h) | percentage damage caused to the plant, ABUTH ([3]; 125 g/h) | percentage damage caused to the plant, SETFA (Setaria faberi (SETFA) [4]; 125 g/h) | percentage damage caused to the plant, ECHCG ([5]; 125 g/h) | percentage damage caused to the plant, AMARE ([6]; 125 g/h) | percentage damage caused to the plant, ABUTH ([8]; 125 g/h) | percentage damage caused to the plant, SETFA (Setaria faberi (SETFA) [9]; 125 g/h) | percentage damage caused to the plant, ECHCG ([10]; 125 g/h)

CC[S+]([O-])c1c(OCC(F)(F)F)ccc(C(=O)Nc2nnnn2C)c1C (stereo not shown) [Compound 1.039]
4 (4=60-79%): percentage damage caused to the plant, IPOHE ([2]; 125 g/h) | percentage damage caused to the plant, IPOHE ([7]; 125 g/h) | percentage damage caused to the plant, SETFA (Setaria faberi (SETFA) [9]; 125 g/h) | percentage damage caused to the plant, ECHCG ([10]; 125 g/h)
5 (5=80-100%): percentage damage caused to the plant, AMARE ([1]; 125 g/h) | percentage damage caused to the plant, ABUTH ([3]; 125 g/h) | percentage damage caused to the plant, SETFA (Setaria faberi (SETFA) [4]; 125 g/h) | percentage damage caused to the plant, ECHCG ([5]; 125 g/h) | percentage damage caused to the plant, AMARE ([6]; 125 g/h) | percentage damage caused to the plant, ABUTH ([8]; 125 g/h)
